Tested on: Thielavia sp. laccase
Test: Bleaching of solubilized indigo by laccase/mediator combinations, 96-well microtitre plate, absorbance at 600 nm
Format: biochemical
Method: An assay for the bleaching of the solubilized indigo substrate by laccase/mediator combinations was performed in a 96-well microtitre plate as follows
A saturated solution of indigo in N-methylpyrrolidone (NMP) was prepared by stirring indigo (30 mg) in NMP (10 ml) at room temperature for 5 hours. The NMP solution was diluted 10-fold into an aqueous buffer solution resulting in a blue solution. For example, dilution into 50 mM sodium acetate buffer at pH 5, or 50 mM sodium phosphate buffer at pH 7. Solutions were shaken well immediately before use.
The assay for the bleaching of the solubilized indigo substrate was performed in a 96-well microtitre plate whereby each well received the soluble indigo solution in 50 mM sodium acetate buffer at pH 5 (180 uL), laccase (10 ppm enzyme) and mediator solution (from a 20 mM stock solution in methanol). The total volume of each well was adjusted to 200 uL with deionzed water. A control containing laccase only was run in duplicate. The plate was sealed and incubated at 50° C. for 2 hours at 800 rpm on a heated agitator (Thermomixer, Eppendorf). Following this period, the plates were unsealed and a solution of ascorbic acid (20 uL of a 10% aqueous solution) added to each well in order to reduce the oxidized forms of the mediators. The extent of indigo bleaching was then assessed by determining the absorbance for each well at 600 nm using a microtitre plate reader. The lower the absorbance reading, the greater the extent of indigo bleaching.
Laccases derived from Myceliophtora (Denilite® II, Novozymes, Bagsvaerd, Denmark), Thielavia (Ecostone LCC10, AB enzymes, Darmstadt, Germany) and Cerrena sp. were assessed for their ability to bleach solubilized indigo in conjunction with low molecular weight mediators at two pH values.

## CCn1c(=NN=c2sc3cc(S(=O)(=O)O)ccc3n2CC)sc2cc(S(=O)(=O)O)ccc21 [ABTS]
Mediator concentration 50 uM
  effectiveness of mediator for indigo bleaching (in words): most effective mediator
Mediator concentration 500 uM
  effectiveness of mediator for indigo bleaching (in words): most effective mediator

## COc1cc(C(=O)O)cc(OC)c1O [Syringic acid, syringic acid]
Mediator concentration 50 uM
  effectiveness of mediator for indigo bleaching (in words): bleached soluble indigo no more effectively than the control condition

Source: US8772005B2, “Laccases, compositions and methods of use” (Danisco US Inc., priority 2006, dated 2014)
